Test results published in patent publication US20250003953A1, “Methods and Model Systems for Assessing Therapeutic Properties of Candidate Agents and Related Computer Readable Media and Systems” (The Regents of the University of California, priority 2021, published 2025).

Columns and labels:
[1] = tested on: panel of G12C and non G12C lines pooled in vivo as xenografts; assay: GENEVA combination therapy study in cell line pools in vivo as xenografts; set-up: species or system mouse; conditions: in combination with ARS1620; for drug synergy from cell cycle active/inactive proportions: G12C lines
Experimental: Treatment conditions include Antimycin, ARS1620, Galunisertib, INK128, DMSO, ARS1620+Antimycin, ARS1620+Galunisertib, ARS1620+INK128. FIG. 8B utilizes GENEVA data from FIG. 8A for synergy calculations performed on cell cycle states in each drug condition singly and in combination estimated for G12C lines across drug conditions.
2 mL of Matrigel Basement Membrane reagent was added to the GENEVA pool prepared by growth rate balancing for a final concentration of 20M/mL. One hundred microliters of this solution was injected into NSG mice in a flank xenograft injection. Twenty-four hours later, mice harboring GENEVA tumors were drugged with the drug compound in a vehicle solution of 5% DMSO, 95% Labrasol. Mice were dosed by oral gavage four fourteen days with five days on, two days off. On the fourteenth day, mice were sacrificed, tumors harvested by homogenization with surgical shears and resuspended in 5 mg/mL Liberase™ Cell Dissociation Reagent in 1:1 DMEM: F12 cell media, DNAse I (10 U/uL). Tumors were incubated in a 37° C. incubator with shaking at 600 RPMs for 45 minutes for enzymatic dissociation and then spun down at 800 g for 5 minutes at 4° C. Dissociated tumors were resuspended in 100 uL 1×PBS.
A panel of G12C and non G12C lines pooled in vivo as xenografts was utilized to conduct combination therapy studies comparing ARS1620 with and without Galunisertib, INK128, and Antimycin for a total of eight different treatment conditions; these compounds were taken from our combination therapy discoveries and mechanistic understanding of mitochondrial action of ARS1620 (FIG. 8A).

[2] = tested on: H1373 KRAS.G12C mutant line; assay: Multi-arm combination therapy in-vivo mouse study; conditions: in combination with ARS1620; for synergy in tumor growth reduction: compared to null model of independence
Experimental: Bliss drug synergy is plotted and several compounds show significant drug synergy with multiple KRAS.G12C inhibitors.
Using the GENEVA dataset of ARS-1620 in a fourteen day drug treatment timeline in which drug resistance developed, gene expression indicators of resistance mechanisms were obtained (FIG. 4A). […] The strongest GENEVA prediction, mTOR resistance, was tested in a multi-arm in vivo mouse study and significant in vivo Bliss drug synergy and tumor reduction over time was found (FIG. 4C,D).
The GENEVA datasets were compared where GENEVA pools were drugged with the KRAS.G12C inhibitor ARS1620, conducted both in vitro and in vivo. Specifically, the in vitro data were compared against the in vivo data to look for differences and similarities attributable to the context of the model systems used. […] As a validation study, a combination therapy multi-arm in vivo mouse study was designed to test the efficacy of an EMT inhibitor, Galunisertib in combination with ARS1620.

lipid peroxidation = assay: Lipid peroxidation live cell probe dose curve and survival kinetics; type: cell-based; conditions: dose curves
Text: FIG. 7B plots gene expression of anti-ferroptotic genes for each cell line in response to increasing ARS1620 dosage. […] Lipid peroxidation and survival kinetics cross over around IC50 in all compounds indicating ARS1620 performs as a ferroptosis inducing agent.
Among this group of genes were FTH1 and FTL, the two components of the Ferritin Complex, which is responsible for sequestration of labile free iron. Using a lipid peroxidation live cell probe, lipid peroxidation—one of the hallmark phenotypes of ferroptosis—was measured in response to ARS-1620 treatment.

| Compound | drug synergy from cell cycle active/inactive proportions [1] | synergy in tumor growth reduction [2] | suppression of tumor growth (relative tumor volume) ([2]; n=4-5 mice per condition) | gene-level synergy on mitochondrial reads (linear model) [1] | cross-over of survival and normalized lipid peroxidation curves (lipid peroxidation) |
| --- | --- | --- | --- | --- | --- |
| antimycin | antagonistic effect |  |  |  |  |
| Cc1cccc(-c2nn3c(c2-c2ccnc4ccc(C(N)=O)cc24)CCC3)n1 [Galunisertib] | relative in vivo synergy | reduce growth synergistically | extremely effective in suppressing tumor growth | further increase the synergistic decrease in mitochondrial reads |  |
| CC(C)n1nc(-c2ccc3oc(N)nc3c2)c2c(N)ncnc21 [INK128] | relative in vivo synergy | synergistically reduce tumor growth in-vivo |  | further increase the synergistic decrease in mitochondrial reads |  |
| CN(C)c1nc(N(C)C)nc(N(C)C)n1 [Altretamine] |  |  |  |  | crossed over around the IC50 survival value |
